Results: ChEMBL document CHEMBL4819108, “A trio of quinoline-isoniazid-phthalimide with promising antiplasmodial potential: Synthesis, in-vitro evaluation and heme-polymerization inhibition studies” (Bioorg Med Chem, 2021)
pIC50: −log10 of the molar value.

How the values were obtained:
Plasmodium falciparum [1] = experiment: Antimalarial activity against Plasmodium falciparum 7G8; format: functional, organism-based
Plasmodium falciparum [2] = experiment: Antiplasmodial activity against CQ-resistant Plasmodium falciparum W2; format: functional, organism-based
Vero = experiment: Cytotoxicity against African green monkey Vero cells; format: cell-based; conditions: Chlorocebus sabaeus
[3] = Selectivity index, ratio of IC50 for African green monkey Vero cells to IC50 for antiplasmodial activity against CQ-resistant Plasmodium falciparum W2; format: toxicity; conditions: read-out: Ratio IC50
Plasmodium falciparum [4] = experiment: Antimalarial activity against Plasmodium falciparum RKL9 infected in human RBC assessed as reduction in parasite growth incubated for 24 hrs by giemsa staining based assay; format: functional, organism-based; conditions: RKL9, Erythrocyte
Heme [5] = experiment: Binding affinity to monomeric heme in HEPES buffer at pH 7.4
Heme [6] = experiment: Binding affinity to monomeric heme in MES buffer at pH 5.6

| Compound | pIC50 (Plasmodium falciparum [2]) | pIC50 (Vero) | selectivity ratio [3] | other results |
| --- | --- | --- | --- | --- |
| O=C(N/N=C/c1c(O)ccc2ccccc12)c1ccncc1 | – | – | – | pIC50 (Plasmodium falciparum [1]): 7.37 |
| O=C(O)c1ccc2c(c1)C(=O)N(CCCCCCCCNc1ccnc3cc(Cl)ccc13)C2=O | 7.36 | < 3.68 | 4820 | – |
| O=C(N/N=C/c1ccc(O)cc1)c1ccncc1 | – | – | – | pIC50 (Plasmodium falciparum [4]): 7.37 |
| O=C(NCCCCCCNc1ccnc2cc(Cl)ccc12)c1ccc2c(c1)C(=O)N(NC(=O)c1ccncc1)C2=O | 7.94 | – | 2900 | log K (Heme [5]): 6.66; log K (Heme [6]): 6.39 |
| O=C(NN1C(=O)c2ccc(C(=O)OCCNc3ccnc4cc(Cl)ccc34)cc2C1=O)c1ccncc1 | 6.09 | < 3.71 | 239 | – |
| O=C(NN1C(=O)c2ccc(N3CCN(c4ccnc5cc(Cl)ccc45)CC3)cc2C1=O)c1ccncc1 | 5.89 | < 3.36 | 338 | – |
| O=C(CN1C(=O)c2ccccc2C1=O)NNC(=O)c1ccncc1 | < 5.00 | < 3.51 | 30.8 | – |
| O=C(NNC(=O)c1ccc2c(c1)C(=O)N(CCCNc1ccnc3cc(Cl)ccc13)C2=O)c1ccncc1 | 6.38 | – | 289 | – |
| O=C(NNC(=O)c1ccc2c(c1)C(=O)N(CCNc1ccnc3cc(Cl)ccc13)C2=O)c1ccncc1 | 5.85 | < 3.71 | 138 | – |
| O=C(NNC(=O)c1ccc2c(c1)C(=O)N(CCCCCCCCNc1ccnc3cc(Cl)ccc13)C2=O)c1ccncc1 | 7.36 | – | 2970 | – |
| O=C(N/N=C/C=C/c1ccccc1)c1ccncc1 | – | – | – | pIC50 (Plasmodium falciparum [4]): 7.18 |
| O=C(O)c1ccc2c(c1)C(=O)N(CCCCCCNc1ccnc3cc(Cl)ccc13)C2=O | 7.52 | – | 805 | – |
| O=C(NCCCCNc1ccnc2cc(Cl)ccc12)c1ccc2c(c1)C(=O)N(NC(=O)c1ccncc1)C2=O | 6.60 | – | 58.1 | – |
| O=C(NCCCCCCCCNc1ccnc2cc(Cl)ccc12)c1ccc2c(c1)C(=O)N(NC(=O)c1ccncc1)C2=O | 7.03 | < 3.78 | 1790 | – |
| O=C(NCCCNc1ccnc2cc(Cl)ccc12)c1ccc2c(c1)C(=O)N(NC(=O)c1ccncc1)C2=O | 6.36 | – | 366 | – |
| O=C(O)c1ccc2c(c1)C(=O)N(CCNc1ccnc3cc(Cl)ccc13)C2=O | 6.37 | < 3.60 | 601 | – |
| O=C(NNC(=O)c1ccc2c(c1)C(=O)N(CCCCNc1ccnc3cc(Cl)ccc13)C2=O)c1ccncc1 | 7.58 | – | 627 | – |
| O=C(NNC(=O)c1ccc(N2C(=O)c3ccccc3C2=O)cc1)c1ccncc1 | < 5.00 | < 3.59 | 25.8 | – |
| O=C(O)c1ccc2c(c1)C(=O)N(CCCCNc1ccnc3cc(Cl)ccc13)C2=O | 7.29 | – | 789 | – |
| O=C(NN1C(=O)c2ccc(C(=O)OCCCNc3ccnc4cc(Cl)ccc34)cc2C1=O)c1ccncc1 | 5.42 | < 3.72 | 50 | – |
| COc1ccc(/C=N/NC(=O)c2ccncc2)cc1O | – | – | – | pIC50 (Plasmodium falciparum [4]): 7.40 |
| O=C(NCCNc1ccnc2cc(Cl)ccc12)c1ccc2c(c1)C(=O)N(NC(=O)c1ccncc1)C2=O | 6.35 | – | 144 | – |
| O=C(O)c1ccc2c(c1)C(=O)N(CCCNc1ccnc3cc(Cl)ccc13)C2=O | 6.30 | – | 487 | – |
| O=C(NNC(=O)c1ccc2c(c1)C(=O)N(CCCCCCNc1ccnc3cc(Cl)ccc13)C2=O)c1ccncc1 | < 5.00 | – | 12.7 | – |
